# Measured values as given in patent US6737383B1, “Herbicidal oxadiazolidines” (priority 1999, dated 2004).
# Key:
# bedstraw = experiment: Test B pre/postemergence bedstraw; type: in vivo, Galium aparine
# Procedure, shortened: (§1)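 Herbicidal effect was estimated by eye on a ten-point control scale after plants spent twelve to sixteen days in a greenhouse following soil or foliar treatment. Foliar sprays targeted plants at one to four leaves; all doses were formulated in a non-phytotoxic solvent with surfactant.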
# blackgrass = experiment: Test B pre/postemergence blackgrass; type: in vivo, Alopecurus myosuroides
# Procedure, shortened: as §1
# surinam grass = experiment: Test B pre/postemergence surinam grass; type: in vivo, Brachiaria decumbens
# Procedure, shortened: as §1
# cocklebur = experiment: Test B pre/postemergence cocklebur; type: in vivo, Xanthium strumarium
# Procedure, shortened: as §1
# corn = experiment: Test B pre/postemergence corn; type: in vivo, Zea mays
# Procedure, shortened: as §1
# crabgrass = experiment: Test B pre/postemergence crabgrass; type: in vivo, Digitaria sanguinalis
# Procedure, shortened: as §1
# giant foxtail = experiment: Test B pre/postemergence giant foxtail; type: in vivo, Setaria faberii
# Procedure, shortened: as §1
# morningglory = experiment: Test B pre/postemergence morningglory; type: in vivo, Ipomoea hederacea
# Procedure, shortened: as §1
# pigweed = experiment: Test B pre/postemergence pigweed; type: in vivo, Amaranthus retroflexus
# Procedure, shortened: as §1
# soybean = experiment: Test B pre/postemergence soybean; type: in vivo, Glycine max
# Procedure, shortened: as §1
# velvetleaf = experiment: Test B pre/postemergence velvetleaf; type: in vivo, Abutilon theophrasti
# Procedure, shortened: as §1
# wheat = experiment: Test B pre/postemergence wheat; type: in vivo, Triticum aestivum
# Procedure, shortened: as §1
# wild oat = experiment: Test B pre/postemergence wild oat; type: in vivo, Avena fatua
# Procedure, shortened: as §1
# rice = experiment: Test B flood test rice; type: in vivo, Oryza sativa
# Procedure, shortened: (§2)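 Flood test on plants grown to the 2-leaf stage; treated plants kept in greenhouse twelve to sixteen days, then visually rated against controls on a 0 (no effect) to 10 (complete control) scale.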
# smallflower flatsedge = experiment: Test B flood test smallflower flatsedge; type: in vivo, Cyperus difformis
# Procedure, shortened: as §2
# bamyardgrass = experiment: Test B flood test barnyardgrass; type: in vivo, Echinochloa crus-galli
# Procedure, shortened: as §2
# [1] = Postemergence, Rate 125 g/ha, scale of 0 to 10 where 0 is no effect and 10 is complete control
# [2] = Preemergence, Rate 62 g/ha, scale 0 to 10 (0 no effect, 10 complete control)
# [3] = Preemergence, Rate 125 g/ha, 0 is no effect, 10 is complete control
# [4] = Preemergence, Rate 250 g/ha, scale 0 to 10, 0 is no effect, 10 is complete control
# [5] = Preemergence, Rate 500 g/ha, scale 0 to 10 (0 no effect, 10 complete control)
# [6] = Rate 62 g/ha, Postemergence, scale of 0 to 10 where 0 is no effect and 10 is complete control
# [7] = Rate 250 g/ha, Postemergence, scale 0 to 10, 0 is no effect, 10 is complete control
# [8] = Rate 500 g/ha, Postemergence, scale 0 to 10
# [9] = Postemergence (flood test species), Rate 125 g/ha, scale of 0 to 10 where 0 is no effect and 10 is complete control
# [10] = Rate 62 g/ha, Postemergence section, flood test species, scale of 0 to 10 where 0 is no effect and 10 is complete control
# [11] = Rate 250 g/ha, Postemergence (flood test), scale 0 to 10, 0 is no effect, 10 is complete control
# [12] = Rate 500 g/ha, listed under Postemergence (flood test species), scale 0 to 10
structure (smiles),measurement,setting,value
CC(C)N(C(=O)n1oc(=O)n(Cc2ccccc2Cl)c1=O)c1ccc(F)cc1 [Compound 140],Bedstraw plant response rating,bedstraw; [1],5
same,Bedstraw plant response rating,bedstraw; [2],0
same,Bedstraw plant response rating (0 to 10 scale),bedstraw; [3],0
same,Bedstraw plant response rating,bedstraw; [4],0
same,Bedstraw plant response rating,bedstraw; [5],0
same,Bedstraw plant response rating,bedstraw; [6],4
same,"Plant response rating, Bedstraw",bedstraw; [7],5
same,Bedstraw plant response rating,"bedstraw; Rate 500 g/ha, Postemergence, scale 0 to 10, 0 no effect, 10 complete control",6
same,Blackgrass plant response rating,blackgrass; [1],3
same,Blackgrass plant response rating,blackgrass; [2],0
same,Blackgrass plant response rating (0 to 10 scale),blackgrass; [3],0
same,Blackgrass plant response rating,blackgrass; [4],4
same,Blackgrass plant response rating,blackgrass; [5],4
same,Blackgrass plant response rating,blackgrass; [6],3
same,"Plant response rating, Blackgrass",blackgrass; [7],4
same,Blackgrass plant response rating,blackgrass; [8],6
same,B. signalgrass plant response rating,surinam grass; [1],0
same,B. signalgrass plant response rating,surinam grass; [2],0
same,B. signalgrass plant response rating (0 to 10 scale),surinam grass; [3],0
same,B. signalgrass plant response rating,surinam grass; [4],0
same,B. signalgrass plant response rating,surinam grass; [5],2
same,B. signalgrass plant response rating,surinam grass; [6],0
same,"Plant response rating, B. signalgrass",surinam grass; [7],0
same,B. signalgrass plant response rating,"surinam grass; Rate 500 g/ha, Postemergence, scale of 0 to 10 where 0 is no effect and 10 is complete control",1
same,Cocklebur plant response rating,cocklebur; [1],0
same,Cocklebur plant response rating,cocklebur; [2],0
same,Cocklebur plant response rating (0 to 10 scale),cocklebur; [3],0
same,Cocklebur plant response rating,cocklebur; [4],0
same,Cocklebur plant response rating,cocklebur; [5],0
same,Cocklebur plant response rating,cocklebur; [6],0
same,"Plant response rating, Cocklebur",cocklebur; [7],3
same,Cocklebur plant response rating,cocklebur; [8],4
same,Corn plant response rating,corn; [1],0
same,Corn plant response rating,corn; [2],0
same,Corn plant response rating (0 to 10 scale),corn; [3],0
same,Corn plant response rating,corn; [4],0
same,Corn plant response rating,corn; [5],0
same,Corn plant response rating,corn; [6],0
same,"Plant response rating, Corn",corn; [7],0
same,Corn plant response rating,corn; [8],0
same,Crabgrass plant response rating,crabgrass; [1],1
same,Crabgrass plant response rating,crabgrass; [2],4
same,Crabgrass plant response rating (0 to 10 scale),crabgrass; [3],6
same,Crabgrass plant response rating,crabgrass; [4],5
same,Crabgrass plant response rating,crabgrass; [5],10
same,Crabgrass plant response rating,crabgrass; [6],0
same,"Plant response rating, Crabgrass",crabgrass; [7],9
same,Crabgrass plant response rating,crabgrass; [8],9
same,Giant foxtail plant response rating,giant foxtail; [1],1
same,Giant foxtail plant response rating,giant foxtail; [2],1
same,Giant foxtail plant response rating (0 to 10 scale),giant foxtail; [3],8
same,Giant foxtail plant response rating,giant foxtail; [5],10
same,Giant foxtail plant response rating,giant foxtail; [6],0
same,"Plant response rating, Giant foxtail",giant foxtail; [7],4
same,Giant foxtail plant response rating,giant foxtail; [8],6
same,Morningglory plant response rating,morningglory; [1],8
same,Morningglory plant response rating,morningglory; [2],0
same,Morningglory plant response rating (0 to 10 scale),morningglory; [3],0
same,Morningglory plant response rating,morningglory; [4],0
same,Morningglory plant response rating,morningglory; [5],0
same,Morningglory plant response rating,morningglory; [6],4
same,"Plant response rating, Morningglory",morningglory; [7],8
same,Morningglory plant response rating,morningglory; [8],8
same,Redroot pigweed plant response rating,pigweed; [1],1
same,Redroot pigweed plant response rating,pigweed; [2],0
same,Redroot pigweed plant response rating (0 to 10 scale),pigweed; [3],0
same,Redroot pigweed plant response rating,pigweed; [4],0
same,Redroot pigweed plant response rating,pigweed; [5],0
same,Redroot pigweed plant response rating,pigweed; [6],0
same,"Plant response rating, Redroot pigweed",pigweed; [7],2
same,Redroot pigweed plant response rating,pigweed; [8],3
same,Soybean plant response rating,soybean; [1],3
same,Soybean plant response rating,soybean; [2],0
same,Soybean plant response rating (0 to 10 scale),soybean; [3],0
same,Soybean plant response rating,soybean; [4],0
same,Soybean plant response rating,soybean; [5],1
same,Soybean plant response rating,soybean; [6],3
same,"Plant response rating, Soybean",soybean; [7],3
same,Soybean plant response rating,soybean; [8],5
same,Velvetleaf plant response rating,velvetleaf; [1],0
same,Velvetleaf plant response rating,velvetleaf; [2],0
same,Velvetleaf plant response rating (0 to 10 scale),velvetleaf; [3],0
same,Velvetleaf plant response rating,velvetleaf; [4],0
same,Velvetleaf plant response rating,velvetleaf; [5],0
same,Velvetleaf plant response rating,velvetleaf; [6],0
same,"Plant response rating, Velvetleaf",velvetleaf; [7],0
same,Velvetleaf plant response rating,velvetleaf; [8],2
same,Wheat plant response rating,wheat; [1],0
same,Wheat plant response rating,wheat; [2],0
same,Wheat plant response rating (0 to 10 scale),wheat; [3],0
same,Wheat plant response rating,wheat; [4],0
same,Wheat plant response rating,wheat; [5],0
same,Wheat plant response rating,wheat; [6],0
same,"Plant response rating, Wheat",wheat; [7],0
same,Wheat plant response rating,wheat; [8],0
same,Wild oats plant response rating,wild oat; [1],0
same,Wild oats plant response rating,wild oat; [2],0
same,Wild oats plant response rating (0 to 10 scale),wild oat; [3],0
same,Wild oats plant response rating,wild oat; [4],1
same,Wild oats plant response rating,wild oat; [5],1
same,Wild oats plant response rating,wild oat; [6],0
same,"Plant response rating, Wild oats",wild oat; [7],0
same,Wild oats plant response rating,wild oat; [8],1
same,Rice plant response rating,rice; [9],0
same,Rice plant response rating,rice; [10],0
same,"Plant response rating, Rice",rice; [11],2
same,Rice plant response rating,rice; [12],4
same,S. Flatsedge plant response rating,smallflower flatsedge; [9],0
same,S. Flatsedge plant response rating,smallflower flatsedge; [10],0
same,"Plant response rating, S. Flatsedge",smallflower flatsedge; [11],0
same,S. Flatsedge plant response rating,smallflower flatsedge; [12],0
same,Barnyardgrass plant response rating,bamyardgrass; [9],0
same,Barnyardgrass plant response rating,bamyardgrass; [10],0
same,"Plant response rating, Barnyardgrass",bamyardgrass; [11],2
same,Barnyardgrass plant response rating,"bamyardgrass; Rate 500 g/ha, listed under Postemergence (flood test species), scale 0 to 10, 0 no effect, 10 complete control",8
